Reference: patent US8304443B2, “Indazole derivatives” (Asahi Kasei Pharma Corporation, priority 2008, dated 2012)
≈ marks a conversion by molar mass, not a printed value.

Legend:
[1] = tested on: urinary bladder smooth muscle isolated from common marmoset; assay: Test example 7: relaxant activity on urinary bladder smooth muscle isolated from common marmoset; settings: strips contracted by 40 mmol/L KCl, papaverine 10^−4 mol/L relaxation = 100%
Experimental: Specifically, a common marmoset (CLEA Japan, Inc.) is bled to exsanguinated death, and then the urinary bladder is taken out of the marmoset via laparotomy. […] A resting tension of 1 g is applied to the strips, which is then equilibrated for more than 30 minutes. […] The final concentration is 10^−9, 10^−8, 10^−7, 10^−8, 10^−5 and 10^−4 mol/L. Upon the completion of the relaxation response to the test compound at the highest concentration, papaverine with final concentration of 10^−4 mol/L is added and the maximum relaxation response is obtained for each strip. This relaxation response is taken as 100%, and the relaxation ratio (%) is obtained for the test compound at the concentrations of 10^−5 and 10^−4 mol/L.

[2] = target: T1, human α1A adrenergic receptor (Homo sapiens, UniProt P35348); assay: Test example 4: human α1A adrenergic receptor agonist activity (Ca flux, Fura-2); type: cell-based; settings: for Emax: Table 4, Test example 4, maximum response to norephinephrine taken as 100%, read-out: α1A receptor I.A.
T1 construct: expressed in transfected cells; host or cells: HEK293 cells, pcDNA3.1(−), geneticin-selected
T1 sequence (P35348 1-466): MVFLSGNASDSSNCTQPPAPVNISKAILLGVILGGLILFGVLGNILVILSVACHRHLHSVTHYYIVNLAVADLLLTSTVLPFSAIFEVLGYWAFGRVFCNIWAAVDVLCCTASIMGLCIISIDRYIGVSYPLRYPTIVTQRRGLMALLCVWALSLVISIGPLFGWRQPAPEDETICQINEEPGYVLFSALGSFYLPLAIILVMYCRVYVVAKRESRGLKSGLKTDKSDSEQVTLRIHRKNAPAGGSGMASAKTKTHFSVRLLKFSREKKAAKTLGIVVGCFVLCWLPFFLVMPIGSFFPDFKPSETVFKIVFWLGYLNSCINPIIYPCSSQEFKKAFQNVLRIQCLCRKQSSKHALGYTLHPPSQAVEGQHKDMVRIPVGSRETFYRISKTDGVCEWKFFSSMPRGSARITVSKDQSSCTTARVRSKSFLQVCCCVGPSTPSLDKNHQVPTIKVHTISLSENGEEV
Experimental: Human α1A adrenergic receptor agonist activity is determined by using HEK293 cells transfected with pcDNA3.1(−) (Invitrogen) to which human α1A gene has been inserted. These cells are cultured in a DMEM medium containing 10% fetal bovine serum, 400 μg/mL geneticin (Gibco BRL), 100 U/ml penicillin and 100 μg/ml streptomycin. […] After carrying out the loading for 30 minutes in a CO2 incubator, excess Fura-2AM is removed by washing the cells twice with the assay buffer. The cells obtained after the centrifuge is prepared to 5×10^6 cells/ml by using the assay buffer, and aliquoted into a 96-well UV plate (manufactured by Corning Inc.) to give a cell plate (80 μl/well). […] After the measurement for about 30 seconds, 20 μl of the test sample from the sample plate is added to the cell plate and the measurement is continued for another 270 seconds. Ca flux caused by the test compound is obtained from the peak height difference between the maximum value of fluorescence intensity ratio at 340 nm and 380 nm after the addition of the test compound and the fluorescence intensity ratio before the addition of the test compound. Maximum response to norephinephrine as a positive control is taken as 100%, and the maximum response ratio of each test compound is obtained as Intrinsic Activity [I.A. (%)].

[3] = Test example 13: stability test in pure water; type: physicochemical; settings: for stability in pure water (finding): up to 48 hours
Experimental: (§1) Test compound is prepared to saturation state in pure water. The resulting solution is shaken at room temperature for 1 hour. To a filter tube, the entire solution obtained after the shaking is transferred and is subjected to centrifugal filtration at room temperature. The filtrate is analyzed by HPLC right after the filtration, 24 hours, and 48 hours after the filtration. Then, by using a calibration curve, stability of the test compound is obtained from the peak area value.
(§2) Standard solution is prepared by precisely weighing each test compound and fully dissolving it in pure water. Calibration curve is established by having the concentration of the standard solution as a horizontal axis and the HPLC area value at the corresponding concentration as a vertical axis.
(§3) As a separation column, YMC-Pack C18 (4.6 mm×150 mm, manufactured by YMC) is used. Detection is made at UV-254 nm and the temperature inside the column is 40° C. Condition for elution is as follows; with flow rate of 1 ml/minute, solution A as a solvent=water [comprising 0.1% (v/v) acetic acid] and solution B=acetonitrile are used, and from minute 0 to minute 20, 5 to 98% (v/v) linear gradient of solution B is applied, followed by elution with 98% of solution B until minute 25 and elution with 5% of solution B from minute 25.01 to minute 35.

[4] = target: T2, human β1 adrenergic receptor (Homo sapiens, UniProt P08588); assay: Test example 2-B: human β1 adrenergic receptor agonist activity; type: cell-based; settings: 0.5 h; read-out: β1 receptor I.A.
T2 construct: expressed in transfected cells; host or cells: CHO (Chinese hamster ovary) cells, pcDNA3

[5] = Test example 12: solubility test in physiological saline; type: physicochemical; settings: saline or isotonic, thermodynamic from solid, 37° C., prepared at 1000 μg/mL
Experimental: (§4) 500 μg of the test compound is precisely weighed, and then added with hydrochloric acid buffer solution having pH 1.2 until the concentration of 1000 μg/mL is obtained. The […] is shaken at 37° C. for 1 hour. To a filter tube, the entire solution obtained after the shaking is transferred and is subjected to centrifugal filtration at room temperature. The filtrate is analyzed by HPLC, and by using a calibration curve, saturation solubility of the test compound is obtained from the peak area value.
Except that the hydrochloric acid buffer solution having pH 1.2 is replaced with physiological saline, the test is carried out in the same method as Test example 11 to obtain the solubility of the test compound.

[6] = Test example 11: solubility test in hydrochloric acid buffer solution having pH 1.2; type: physicochemical; settings: 37 °C, pH 1.2, simulated gastric fluid, thermodynamic from solid, pH 1.2, 37° C., prepared at 1000 μg/mL
Experimental: as §4
Standard solution is prepared by precisely weighing 500 μg of the test compound and dissolving it DMSO to obtain the concentration of 1 mg/mL.
as §3

[7] = Test example 14: stability in phosphate buffer solution having pH 6.8; type: physicochemical; settings: for HPLC area percentage at 24 hours after the filtration / HPLC area percentage at 48 hours after the filtration / HPLC area percentage right after the filtration: phosphate buffer solution pH 6.8; for stability in phosphate buffer solution pH 6.8 (finding): up to 48 hours
Experimental: as §1
Except that pure water is replaced with phosphate buffer solution having pH 6.8, the test is carried out in the same method as Test example 13 to obtain the stability of the test compound.

[8] = Test example 10: saturation solubility in pure water; type: physicochemical; settings: thermodynamic from solid, room temperature, shaken 1 hour
Experimental: as §1, with “HPLC,” for “HPLC right after the filtration, 24 hours,”, “and” for “and 48 hours after the filtration. Then,”, “saturation solubility” for “stability”
as §2, §3

[9] = target: T3, human β2 adrenergic receptor (Homo sapiens, UniProt P07550); assay: Test example 3-B: human β2 adrenergic receptor agonist activity; type: cell-based; settings: read-out: β2 receptor I.A.
T3 construct: expressed in transfected cells; host or cells: CHO (Chinese hamster ovary) cells, pcDNA3
T3 sequence (P07550 whole entry): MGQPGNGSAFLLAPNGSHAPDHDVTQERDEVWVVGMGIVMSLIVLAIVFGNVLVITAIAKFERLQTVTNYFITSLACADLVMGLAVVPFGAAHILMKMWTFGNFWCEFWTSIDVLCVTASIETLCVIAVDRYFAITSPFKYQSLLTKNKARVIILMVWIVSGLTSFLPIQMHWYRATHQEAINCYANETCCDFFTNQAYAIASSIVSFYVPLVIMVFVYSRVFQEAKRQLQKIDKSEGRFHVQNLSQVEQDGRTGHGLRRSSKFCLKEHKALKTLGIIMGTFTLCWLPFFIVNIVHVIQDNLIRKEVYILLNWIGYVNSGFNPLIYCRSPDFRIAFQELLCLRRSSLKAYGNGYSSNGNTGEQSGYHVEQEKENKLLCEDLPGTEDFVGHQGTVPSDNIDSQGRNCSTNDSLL

T2 sequence (P08588 whole entry): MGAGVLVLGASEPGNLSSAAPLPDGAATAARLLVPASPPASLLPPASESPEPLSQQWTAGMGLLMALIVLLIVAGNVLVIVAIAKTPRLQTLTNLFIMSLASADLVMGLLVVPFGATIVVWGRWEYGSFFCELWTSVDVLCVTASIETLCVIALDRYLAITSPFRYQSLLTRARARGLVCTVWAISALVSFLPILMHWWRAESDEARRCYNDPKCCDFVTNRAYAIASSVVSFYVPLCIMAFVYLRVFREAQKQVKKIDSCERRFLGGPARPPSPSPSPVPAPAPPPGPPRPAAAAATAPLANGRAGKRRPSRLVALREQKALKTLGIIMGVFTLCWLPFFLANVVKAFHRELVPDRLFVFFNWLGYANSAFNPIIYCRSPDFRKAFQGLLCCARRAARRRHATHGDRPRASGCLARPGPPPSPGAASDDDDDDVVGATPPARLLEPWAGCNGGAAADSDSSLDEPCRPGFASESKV

EC50 [2] [nM] | Emax [2] [%] | HPLC area percentage at 24 hours after the filtration [3] [%] | HPLC area percentage at 48 hours after the filtration [3] [%] | HPLC area percentage right after the filtration [3] [%] | stability in pure water (finding) [3] | Emax [4] [%] | solubility at 1 h [5] [µg/mL] | solubility at 1 h [6] [µg/mL] | HPLC area percentage at 24 hours after the filtration [7] [%] | HPLC area percentage at 48 hours after the filtration [7] [%] | HPLC area percentage right after the filtration [7] [%] | stability in phosphate buffer solution pH 6.8 (finding) [7] | solubility at 1 h [8] [mg/mL] | Emax [9] [%] | SMILES | relaxant activity (%) 10^−4 M [1] [%] | relaxant activity (%) 10^−5 M [1] [%]
1670 | 20 | 95.6 | 95.6 | 95.7 | stable | 10 | 999 (≈ 2320 µM) | 982 (≈ 2280 µM) | 95.5 | 95.5 | 95.7 | stable | 55 (≈ 128000 µM) | 6.3 | CS(=O)(=O)Nc1cccc([C@@H](O)CNCCOc2ccc3c(C4CC4)n[nH]c3c2)c1 [Example 1, (R)—N-(3-(1-Hydroxy-2-(2-(3-cyclopropylindazol-6-yloxy)ethylamino)ethyl)phenyl)methanesulfonamide] | 55.7 | 38.6
– | 10 | 95.2 | 95.0 | 95.2 | stable | 9.9 | 999 (≈ 2250 µM) | > 1000 | 93.3 | 94.5 | 95.1 | stable | 53 (≈ 119000 µM) | 3.8 | CS(=O)(=O)Nc1cccc([C@@H](O)CNCCOc2ccc3c(C4CCC4)n[nH]c3c2)c1 [Example 2, (R)—N-(3-(1-Hydroxy-2-(2-(3-cyclobutylindazol-6-yloxy)ethylamino)ethyl)phenyl)methanesulfonamide] | 65.6 | 50.8
